This test deals with T1, AR (Homo sapiens, UniProt P10275).
T1 construct: endogenous in cells; host or cells: VCaP cells
T1 sequence (P10275 1-920): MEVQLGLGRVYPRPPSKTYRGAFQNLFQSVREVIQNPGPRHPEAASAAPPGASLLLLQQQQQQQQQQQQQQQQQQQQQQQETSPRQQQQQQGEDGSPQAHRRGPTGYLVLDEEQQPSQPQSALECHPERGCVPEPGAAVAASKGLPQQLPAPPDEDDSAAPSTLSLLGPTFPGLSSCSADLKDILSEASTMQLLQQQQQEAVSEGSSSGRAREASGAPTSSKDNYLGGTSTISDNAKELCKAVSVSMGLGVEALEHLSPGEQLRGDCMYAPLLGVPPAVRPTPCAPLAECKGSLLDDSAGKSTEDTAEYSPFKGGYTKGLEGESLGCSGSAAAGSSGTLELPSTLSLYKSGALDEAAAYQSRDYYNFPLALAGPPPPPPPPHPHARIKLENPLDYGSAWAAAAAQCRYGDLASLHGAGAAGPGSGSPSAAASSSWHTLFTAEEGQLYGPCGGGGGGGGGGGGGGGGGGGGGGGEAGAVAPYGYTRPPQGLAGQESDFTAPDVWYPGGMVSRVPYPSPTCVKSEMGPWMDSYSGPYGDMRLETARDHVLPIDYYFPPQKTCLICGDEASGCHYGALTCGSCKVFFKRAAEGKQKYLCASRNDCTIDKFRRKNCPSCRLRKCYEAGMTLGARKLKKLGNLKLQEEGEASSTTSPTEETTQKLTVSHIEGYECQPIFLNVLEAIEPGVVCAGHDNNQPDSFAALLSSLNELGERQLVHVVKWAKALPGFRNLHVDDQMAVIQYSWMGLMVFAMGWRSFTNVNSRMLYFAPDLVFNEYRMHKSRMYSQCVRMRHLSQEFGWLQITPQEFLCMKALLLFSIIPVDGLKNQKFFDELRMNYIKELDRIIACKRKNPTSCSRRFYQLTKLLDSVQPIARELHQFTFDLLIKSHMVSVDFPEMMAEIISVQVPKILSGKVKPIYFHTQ
As to the kind of experiment: VCAP AR Degradation Assay. It is filed as cell-based. The conditions noted are these: VCaP cells, 24 h; for DC50: AR ELISA, concentration when AR level = 50% of DMSO control; for Ymin: lowest AR level normalized to DMSO control. As for the experimental part:
VCAP AR Degradation Assay. Test compounds were pre-dispensed into a Corning CellBind 96-well clear bottom plate (Cat #3300) using an acoustic dispenser to make a 10-point concentration series at 1:3 dilution for each compound. The final top concentration of each compound was 5 μM. DMSO at a final concentration of 0.1% was used as a control. VCaP cells cultured in DMEM with 8% fetal bovine serum (FBS) were seeded at 50K cells per well in a 200 μL volume into the compound plate and incubated at 37° C. in a C02 incubator for 24 h. The medium was carefully removed from the cells and the plate was placed on ice. One hundred μL of ice-cold 1× cell lysis buffer from Cell Signaling Technologies (Cat #9803) was added to each well of the cells and the plate was incubated at 4° C. on a shaker for 1 h. Fifteen μL of cell lysate was used for AR ELISA detection using a PathScan Total Sandwich AR ELISA kit (Cell Signaling Technology, Cat #12580). AR levels in compound-treated wells were normalized to that of DMSO control and expressed as percent of control (PoC) (y). A Four Parameter Logistic Model (Sigmoidal Dose-Response Model) was used to determine the compound's DC50, and EC50, using the following equation: […]
The lowest measured AR level normalized to DMSO control in response to compound treatment, termed Y value, was used to characterize the compound-mediated AR degradation efficiency.
A general note: ELISA stands for enzyme-linked immunosorbent assay.

Where a name gives a salt, the structure may show the parent alone.

As for `C[C@@H]1CN(CCCO[C@H]2CC[C@H](N3C(=S)N(c4ccc(C#N)c(Cl)c4)C(=O)C3(C)C)CC2)C[C@H](C)N1CC(=O)Nc1ccc(C2CCC(=O)NC2=O)cc1` (stereo partly drawn) [Cmpd 14, 2-((2R,6S)-4-(3-((trans-4-(3-(3-Chloro-4-cyanophenyl)-5,5-dimethyl-4-oxo-2-thioxoimidazolidin-1-yl)cyclohexyl)oxy)propyl)-2,6-dimethylpiperazin-1-yl)-N-(4-(2,6-dioxopiperidin-3-yl)phenyl)acetamide hydrochloride], the DC50 was at most 5 nM. Moreover, for the setting “class symbols”, the Ymin result is “* (0<Y≤20%)”.

Turning to `C[C@@H]1CN(CCC[C@H]2CC[C@H](N3C(=S)N(c4cnc(C#N)c(C(F)(F)F)c4)C(=O)C3(C)C)CC2)C[C@H](C)N1CC(=O)Nc1ccc(C2CCC(=O)NC2=O)cc1` (stereo partly drawn) [Cmpd 15, 2-((2R,6S)-4-(3-(trans-4-(3-(6-Cyano-5-(trifluoromethyl)pyridin-3-yl)-5,5-dimethyl-4-oxo-2-thioxoimidazolidin-1-yl)cyclohexyl)propyl)-2,6-dimethylpiperazin-1-yl)-N-(4-(2,6-dioxopiperidin-3-yl)phenyl)acetamide hydrochloride], the DC50 is at most 5 nM. For the same compound, the Ymin entry (class symbols) is “** (20%<Y≤30%)”.

`C[C@@H]1CN(CCC[C@H]2CC[C@H](N3C(=S)N(c4cnc(C#N)c(Cl)c4)C(=O)C3(C)C)CC2)C[C@H](C)N1CC(=O)Nc1ccc(C2CCC(=O)NC2=O)cc1` (stereo partly drawn) [Cmpd 16, 2-((2R,6S)-4-(3-(trans-4-(3-(5-Chloro-6-cyanopyridin-3-yl)-5,5-dimethyl-4-oxo-2-thioxoimidazolidin-1-yl)cyclohexyl)propyl)-2,6-dimethylpiperazin-1-yl)-N-(4-(2,6-dioxopiperidin-3-yl)phenyl)acetamide hydrochloride] returned a 50% degradation concentration (DC50) of 5 to 15 nM. In addition, under “class symbols”, the Ymin entry was “*** (30%<Y<80%)”.

In turn, `C[C@@H]1CN(CCC[C@H]2CC[C@H](N3C(=S)N(c4ccc(C#N)c(Cl)c4)C(=O)C3(C)C)CC2)C[C@H](C)N1CC(=O)Nc1ccc(C2CCC(=O)NC2=O)cc1` (stereo partly drawn) [Cmpd 17, 2-((2S,6R)-4-(3-(trans-4-(3-(3-Chloro-4-cyanophenyl)-5,5-dimethyl-4-oxo-2-thioxoimidazolidin-1-yl)cyclohexyl)propyl)-2,6-dimethylpiperazin-1-yl)-N-(4-(2,6-dioxopiperidin-3-yl)phenyl)acetamide hydrochloride] returned a DC50 of 5 to 15 nM. In addition, the Ymin result (class symbols) was “*** (30%<Y<80%)”.

The compound `C[C@@H]1CN(CCCO[C@H]2CC[C@H](N3C(=S)N(c4ccc(C#N)c(C(F)(F)F)c4)C(=O)C3(C)C)CC2)C[C@H](C)N1CC(=O)Nc1cccc(N2CCC(=O)NC2=O)c1` [Cmpd 19, 2-((2R,6S)-4-(3-((trans-4-(3-(4-Cyano-3-(trifluoromethyl)phenyl)-5,5-dimethyl-4-oxo-2-thioxoimidazolidin-1-yl)cyclohexyl)oxy)propyl)-2,6-dimethylpiperazin-1-yl)-N-(3-(2,4-dioxotetrahydropyrimidin-1(2H)-yl)phenyl)acetamide hydrochloride] gave a DC50 of at most 5 nM. For the same compound, under “class symbols”, the Ymin result is given as “** (20%<Y≤30%)”.

The compound `C[C@@H]1CN(CCCO[C@H]2CC[C@H](N3C(=S)N(c4ccc(C#N)c(C(F)(F)F)c4)C(=O)C3(C)C)CC2)C[C@H](C)N1CC(=O)Nc1cccc(C2CCC(=O)NC2=O)c1` (stereo partly drawn) [Cmpd 20, 2-((2R,6S)-4-(3-((trans-4-(3-(4-Cyano-3-(trifluoromethyl)phenyl)-5,5-dimethyl-4-oxo-2-thioxoimidazolidin-1-yl)cyclohexyl)oxy)propyl)-2,6-dimethylpiperazin-1-yl)-N-(3-(2,6-dioxopiperidin-3-yl)phenyl)acetamide hydrochloride] displayed a DC50 of at most 5 nM. Further, for the setting “class symbols”, the Ymin entry is recorded as “** (20%<Y≤30%)”.

In the case of `C[C@@H]1C[C@@H](CCO[C@H]2CC[C@H](N3C(=S)N(c4ccc(C#N)c(C(F)(F)F)c4)C(=O)C3(C)C)CC2)C[C@H](C)N1CC(=O)Nc1ccc(C2CCC(=O)NC2=O)cc1` (stereo partly drawn) [Cmpd 21, 2-((2R,4s,6S)-4-(2-((trans-4-(3-(4-Cyano-3-(trifluoromethyl)phenyl)-5,5-dimethyl-4-oxo-2-thioxoimidazolidin-1-yl)cyclohexyl)oxy)ethyl)-2,6-dimethylpiperidin-1-yl)-N-(4-(2,6-dioxopiperidin-3-yl)phenyl)acetamide hydrochloride], the DC50 was at most 5 nM. In addition, under “class symbols”, the Ymin entry was “* (0<Y≤20%)”.

The compound `C[C@@H]1C[C@H](CCO[C@H]2CC[C@H](N3C(=S)N(c4ccc(C#N)c(C(F)(F)F)c4)C(=O)C3(C)C)CC2)C[C@H](C)N1CC(=O)Nc1ccc(C2CCC(=O)NC2=O)cc1` (stereo partly drawn) [Cmpd 22, 2-((2R,4r,6S)-4-(2-((trans-4-(3-(4-Cyano-3-(trifluoromethyl)phenyl)-5,5-dimethyl-4-oxo-2-thioxoimidazolidin-1-yl)cyclohexyl)oxy)ethyl)-2,6-dimethylpiperidin-1-yl)-N-(4-(2,6-dioxopiperidin-3-yl)phenyl)acetamide hydrochloride] displayed a DC50 of at most 5 nM. Moreover, the Ymin result (class symbols) is recorded as “* (0<Y≤20%)”.

`CC1(C)C(=O)N(c2ccc(C#N)c(C(F)(F)F)c2)C(=S)N1[C@H]1CC[C@H](OCCN2CCN(CC(=O)Nc3ccc(C4CCC(=O)NC4=O)cc3)[C@@H](C(F)(F)F)C2)CC1` (stereo partly drawn) [Cmpd 23, 2-((R)-4-(2-((trans-4-(3-(4-Cyano-3-(trifluoromethyl)phenyl)-5,5-dimethyl-4-oxo-2-thioxoimidazolidin-1-yl)cyclohexyl)oxy)ethyl)-2-(trifluoromethyl)piperazin-1-yl)-N-(4-(2,6-dioxopiperidin-3-yl)phenyl)acetamide hydrochloride] registered a half-maximal degradation concentration (DC50) of 5 to 15 nM. Further, the Ymin result (class symbols) is listed as “* (0<Y≤20%)”.

`C[C@@H]1CN(CCCC[C@H]2CC[C@H](N3C(=S)N(c4ccc(C#N)c(C(F)(F)F)c4)C(=O)C3(C)C)CC2)C[C@H](C)N1CC(=O)Nc1cccc(C2CCC(=O)NC2=O)c1` (stereo partly drawn) [Cmpd 24, 2-((2R,6S)-4-(4-((trans)-4-(3-(4-Cyano-3-(trifluoromethyl)phenyl)-5,5-dimethyl-4-oxo-2-thioxoimidazolidin-1-yl)cyclohexyl)butyl)-2,6-dimethylpiperazin-1-yl)-N-(3-(2,6-dioxopiperidin-3-yl)phenyl)acetamide] yielded a DC50 of at most 5 nM. The Ymin (given as numbers) is 15 % of DMSO control.

`C[C@@H]1CN(CCCC[C@H]2CC[C@H](N3C(=S)N(c4ccc(C#N)c(C(F)(F)F)c4)C(=O)C3(C)C)CC2)C[C@H](C)N1CC(=O)Nc1cccc(N2CCC(=O)NC2=O)c1` [Cmpd 25, 2-((2R,6S)-4-(4-((trans)-4-(3-(4-Cyano-3-(trifluoromethyl)phenyl)-5,5-dimethyl-4-oxo-2-thioxoimidazolidin-1-yl)cyclohexyl)butyl)-2,6-dimethylpiperazin-1-yl)-N-(3-(2,4-dioxotetrahydropyrimidin-1(2H)-yl)phenyl)acetamide] had a DC50 of 5 to 15 nM. Further, under “given as numbers”, the Ymin is listed as 24 % of DMSO control.

Consider `C[C@@H]1CN(CCCC[C@H]2CC[C@H](N3C(=S)N(c4ccc(C#N)c(C(F)(F)F)c4)C(=O)C3(C)C)CC2)C[C@H](C)N1CC(=O)Nc1ccc(N2CCC(=O)NC2=O)cc1` [Cmpd 26, 2-((2R,6S)-4-(4-((trans)-4-(3-(4-Cyano-3-(trifluoromethyl)phenyl)-5,5-dimethyl-4-oxo-2-thioxoimidazolidin-1-yl)cyclohexyl)butyl)-2,6-dimethylpiperazin-1-yl)-N-(4-(2,4-dioxotetrahydropyrimidin-1(2H)-yl)phenyl)acetamide], for which the half-maximal degradation concentration (DC50) was 5 to 15 nM. In addition, the Ymin (given as numbers) is on record as 25 % of DMSO control.

As usually defined, the DC50 is the concentration giving 50% degradation.

Values taken from patent publication US20240368118A1, “CEREBLON BINDING COMPOUNDS, COMPOSITIONS THEREOF, AND METHODS OF TREATMENT THEREWITH” (CELGENE CORPORATION, priority 2021, published 2024).
